Assay results taken from the supplement of paper PMC11281043.

Legend:
Conditions in all cases: exposure: 6-8 hpf to 5 dpf, scored at 6 dpf
Danio rerio embryo/larva [1] = experiment: max % larvae generally abnormal across tested concentrations; higher = more toxic; extreme values may be limits of the assay
Danio rerio embryo/larva [2] = experiment: max % larvae with pigmentation defects across tested concentrations; higher = more toxic
Danio rerio embryo/larva [3] = experiment: max % larvae with spinal defects across tested concentrations; higher = more toxic; extreme values may be limits of the assay
Danio rerio embryo/larva [4] = experiment: max % larvae with blood pooling across tested concentrations; higher = more toxic; extreme values may be limits of the assay
Danio rerio embryo/larva [5] = experiment: BMC general abnormality; higher = less potent
Method: (§1)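 Zebrafish embryos (with chorion) were exposed from 6-8 hpf to each PFAS (8-point half-log series, top concentration up to 100 uM, 0.4% DMSO, sealed plates, 26 C; n = 6 embryos per concentration), rinsed at 5 dpf and scored at 6 dpf by two blinded observers for mortality, hatching and malformations. Endpoint scores are the % of living larvae affected (dead larvae excluded; […]). Curves were fitted with tcpl (cutoff 16%), and the BMC is the concentration at a benchmark response of 21.6%.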

Danio rerio embryo/larva [6] = experiment: max % larvae with tail defects across tested concentrations; higher = more toxic; extreme values may be limits of the assay
Danio rerio embryo/larva [7] = experiment: max % larvae with craniofacial defects across tested concentrations; higher = more toxic; extreme values may be limits of the assay
Danio rerio embryo/larva [8] = experiment: max % larvae with uninflated swim bladder across tested concentrations; higher = more toxic; extreme values may be limits of the assay
Danio rerio embryo/larva [9] = experiment: max % larvae with edema across tested concentrations; higher = more toxic; extreme values may be limits of the assay
Danio rerio embryo/larva [10] = experiment: max % larvae with abnormal position across tested concentrations; higher = more toxic; extreme values may be limits of the assay
Danio rerio embryo/larva [11] = experiment: BMC edema; higher = less potent
Method: as §1

Danio rerio embryo/larva [12] = experiment: max % larvae with any abnormality across tested concentrations; max tested concentration (log10 uM): 2; higher = more toxic; extreme values may be limits of the assay
Danio rerio embryo/larva [13] = experiment: max % larvae unhatched across tested concentrations; max tested concentration (log10 uM): 2; higher = more toxic
Danio rerio embryo/larva [14] = experiment: BMC swim bladder non-inflation; higher = less potent
Method: as §1

Danio rerio embryo/larva [15] = experiment: max % larvae dead across tested concentrations; max tested concentration (log10 uM): 2; higher = more toxic; extreme values may be limits of the assay
Danio rerio embryo/larva [16] = experiment: BMC any abnormality; max tested concentration (log10 uM): 2; higher = less potent
Method: as §1

[17] = max tested concentration (log10 uM): 2
[18] = max tested concentration (log10 uM): 0

Row | SMILES | max % larvae (Danio rerio embryo/larva [12]) [%] | max % larvae unhatched across tested concentrations (Danio rerio embryo/larva [13]) [%] | max % larvae dead across tested concentrations (Danio rerio embryo/larva [15]) [%] | BMC any abnormality (Danio rerio embryo/larva [16]) [µM] | also measured
1 | FC(F)(F)C(F)(F)C(F)(F)C(F)(F)C(F)(F)CCI [1-Iodo-1H,1H,2H,2H-perfluoroheptane] (max tested concentration (log10 uM): 2) | – | – | – | – | max % larvae generally abnormal across tested concentrations (Danio rerio embryo/larva [1]): 42.9%; max % larvae (Danio rerio embryo/larva [2]): 0%; max % larvae (Danio rerio embryo/larva [3]): 4.17%; max % larvae (Danio rerio embryo/larva [4]): 0%; BMC general abnormality (Danio rerio embryo/larva [5]): 31.4 µM; max % larvae (Danio rerio embryo/larva [6]): 7.14%; max % larvae (Danio rerio embryo/larva [7]): 14.3%; max % larvae (Danio rerio embryo/larva [8]): 35.7%; max % larvae (Danio rerio embryo/larva [9]): 35.7%; max % larvae (Danio rerio embryo/larva [10]): 10.7%
2 | FC(F)(I)C(F)(F)C(F)(F)C(F)(F)I [Perfluoro-1,4-diiodobutane] (max tested concentration (log10 uM): 2) | – | – | – | – | max % larvae generally abnormal across tested concentrations (Danio rerio embryo/larva [1]): 58.3%; max % larvae (Danio rerio embryo/larva [2]): 0%; max % larvae (Danio rerio embryo/larva [3]): 16.7%; max % larvae (Danio rerio embryo/larva [4]): 20%; BMC general abnormality (Danio rerio embryo/larva [5]): 20.6 µM; max % larvae (Danio rerio embryo/larva [6]): 20.8%; max % larvae (Danio rerio embryo/larva [7]): 50%; max % larvae (Danio rerio embryo/larva [8]): 66.7%; max % larvae (Danio rerio embryo/larva [9]): 58.3%; max % larvae (Danio rerio embryo/larva [10]): 16.7%
3 | OCC(F)(F)C(F)(F)C(F)(F)C(F)(F)C(F)(F)C(F)(F)C(F)(F)C(F)(F)CO [1H,1H,10H,10H-Perfluorodecane-1,10-diol] (max tested concentration (log10 uM): 1) | – | – | – | – | max % larvae generally abnormal across tested concentrations (Danio rerio embryo/larva [1]): 75%; max % larvae (Danio rerio embryo/larva [2]): 0%; max % larvae (Danio rerio embryo/larva [3]): 4.17%; max % larvae (Danio rerio embryo/larva [4]): 33.3%; BMC general abnormality (Danio rerio embryo/larva [5]): 3.79 µM; max % larvae (Danio rerio embryo/larva [6]): 8.33%; max % larvae (Danio rerio embryo/larva [7]): 83.3%; max % larvae (Danio rerio embryo/larva [8]): 83.3%; max % larvae (Danio rerio embryo/larva [9]): 66.7%; max % larvae (Danio rerio embryo/larva [10]): 4.17%
4 | O=C(O)C(F)(F)C(F)(F)C(F)(F)C(F)(F)C(F)(F)C(F)(F)C(F)(F)C(F)(F)F [Perfluorononanoic acid] (max tested concentration (log10 uM): 2) | – | – | – | – | max % larvae generally abnormal across tested concentrations (Danio rerio embryo/larva [1]): 75%; max % larvae (Danio rerio embryo/larva [2]): 0%; max % larvae (Danio rerio embryo/larva [3]): 25%; max % larvae (Danio rerio embryo/larva [4]): 16.7%; BMC general abnormality (Danio rerio embryo/larva [5]): 28 µM; max % larvae (Danio rerio embryo/larva [6]): 50%; max % larvae (Danio rerio embryo/larva [7]): 100%; max % larvae (Danio rerio embryo/larva [8]): 100%; max % larvae (Danio rerio embryo/larva [9]): 75%; max % larvae (Danio rerio embryo/larva [10]): 37.5%
5 | CCNS(=O)(=O)C(F)(F)C(F)(F)C(F)(F)C(F)(F)C(F)(F)C(F)(F)C(F)(F)C(F)(F)F [N-Ethylperfluorooctane sulfonamide] (max tested concentration (log10 uM): 1) | – | – | – | – | max % larvae generally abnormal across tested concentrations (Danio rerio embryo/larva [1]): 58.3%; max % larvae (Danio rerio embryo/larva [2]): 0%; max % larvae (Danio rerio embryo/larva [3]): 0%; max % larvae (Danio rerio embryo/larva [4]): 16.7%; BMC general abnormality (Danio rerio embryo/larva [5]): 2.91 µM; max % larvae (Danio rerio embryo/larva [6]): 0%; max % larvae (Danio rerio embryo/larva [7]): 8.33%; max % larvae (Danio rerio embryo/larva [8]): 83.3%; max % larvae (Danio rerio embryo/larva [9]): 41.7%; max % larvae (Danio rerio embryo/larva [10]): 8.33%
6 | FC(F)C(F)(F)COCC1CO1 (configuration not stated) [((2,2,3,3-Tetrafluoropropoxy)methyl)oxirane] | 91.7 | 0 | 0 | 26.5 | BMC edema (Danio rerio embryo/larva [11]; [17]): 32.6 µM; BMC swim bladder non-inflation (Danio rerio embryo/larva [14]; [17]): 27.7 µM
7 | FC(F)(F)C(F)(F)C(F)(F)C(F)(F)C(F)(F)CCI [1-Iodo-1H,1H,2H,2H-perfluoroheptane] | 72.9 | 0 | – | 29.3 | BMC edema (Danio rerio embryo/larva [11]; [17]): 31.5 µM; BMC swim bladder non-inflation (Danio rerio embryo/larva [14]; [17]): 31.5 µM
8 | Cc1ccc(S(=O)(=O)OCC(F)(F)C(F)(F)C(F)(F)C(F)(F)C(F)(F)C(F)F)cc1 [1H,1H,7H-Perfluoroheptyl 4-methylbenzenesulfonate] | 75 | 0 | 0 | 20.3 | BMC swim bladder non-inflation (Danio rerio embryo/larva [14]; [17]): 8.97 µM
9 | O=S(=O)(O)C(F)(F)C(F)(F)C(F)(F)C(F)(F)C(F)(F)C(F)(F)F [Potassium perfluorohexanesulfonate] | 90.9 | 0 | – | 31.3 | –
10 | FC(F)(F)C(F)(F)C(F)(F)C(F)(F)C(F)(F)C(F)(F)C(F)(F)I [1-Iodopentadecafluoroheptane] | 83.3 | 0 | 16.7 | 10.9 | BMC swim bladder non-inflation (Danio rerio embryo/larva [14]; [17]): 56.7 µM
11 | OCCCC(F)(F)C(F)(F)C(F)(F)C(F)(F)C(F)(F)C(F)(F)C(F)(F)F [7:3 Fluorotelomer alcohol] | 45.8 | 0 | – | 38.3 | BMC swim bladder non-inflation (Danio rerio embryo/larva [14]; [17]): 99 µM
12 | NS(=O)(=O)C(F)(F)C(F)(F)C(F)(F)C(F)(F)C(F)(F)C(F)(F)C(F)(F)C(F)(F)F [Perfluorooctanesulfonamide] | 100 | 0 | – | 0.261 | BMC edema (Danio rerio embryo/larva [11]; [18]): 0.563 µM; BMC swim bladder non-inflation (Danio rerio embryo/larva [14]; [18]): 0.313 µM
13 | O=C(O)CCC(F)(F)C(F)(F)C(F)(F)F [3:3 Fluorotelomer carboxylic acid] | 25 | 0 | 0 | 87.8 | –
14 | O=C(Cl)C(F)(F)C(F)(F)C(F)(F)C(F)(F)C(F)(F)C(F)(F)C(F)(F)C(F)(F)F [Perfluorononanoyl chloride] | 100 | 0 | 100 | 25 | –
15 | O=P(O)(O)CCC(F)(F)C(F)(F)C(F)(F)C(F)(F)C(F)(F)C(F)(F)F [2-(Perfluorohexyl)ethylphosphonic acid] | 95.8 | 0 | – | 21.9 | BMC edema (Danio rerio embryo/larva [11]; [17]): 22.5 µM
16 | C=CC(=O)OCCC(F)(F)C(F)(F)C(F)(F)C(F)(F)F [2-(Perfluorobutyl)ethyl acrylate] | 100 | 0 | – | 26.3 | BMC swim bladder non-inflation (Danio rerio embryo/larva [14]; [17]): 75.7 µM
17 | OCC(F)(F)C(F)(F)C(F)(F)C(F)(F)C(F)(F)C(F)(F)F [6:1 Fluorotelomer alcohol] | 75 | 0 | – | 73.3 | BMC edema (Danio rerio embryo/larva [11]; [17]): 94.1 µM

Row | SMILES | max % larvae (Danio rerio embryo/larva [12]) [%] | max % larvae unhatched across tested concentrations (Danio rerio embryo/larva [13]) [%] | max % larvae dead across tested concentrations (Danio rerio embryo/larva [15]) [%] | BMC any abnormality (Danio rerio embryo/larva [16]) [µM] | also measured
18 | NCC(F)(F)C(F)(F)C(F)(F)C(F)(F)C(F)(F)C(F)(F)F [1H,1H-Perfluoroheptylamine] (max tested concentration (log10 uM): 2) | – | – | – | – | max % larvae generally abnormal across tested concentrations (Danio rerio embryo/larva [1]): 33.3%; max % larvae (Danio rerio embryo/larva [2]): 0%; max % larvae (Danio rerio embryo/larva [3]): 0%; max % larvae (Danio rerio embryo/larva [4]): 0%; BMC general abnormality (Danio rerio embryo/larva [5]): 79.2 µM; max % larvae (Danio rerio embryo/larva [6]): 0%; max % larvae (Danio rerio embryo/larva [7]): 0%; max % larvae (Danio rerio embryo/larva [8]): 0%; max % larvae (Danio rerio embryo/larva [9]): 33.3%
19 | NCC(F)(F)C(F)(F)C(F)(F)C(F)(F)C(F)(F)C(F)(F)F [1H,1H-Perfluoroheptylamine] | 33.3 | 0 | 0 | 79.2 | BMC edema (Danio rerio embryo/larva [11]; [17]): 79.2 µM
20 | CNS(=O)(=O)C(F)(F)C(F)(F)C(F)(F)C(F)(F)C(F)(F)C(F)(F)C(F)(F)C(F)(F)F [N-Methylperfluorooctanesulfonamide] | 95.8 | 0 | – | 0.702 | BMC edema (Danio rerio embryo/larva [11]; [17]): 20.1 µM; BMC swim bladder non-inflation (Danio rerio embryo/larva [14]; [17]): 0.439 µM
21 | O=C(O)C(F)(F)OC(F)(F)C(F)(F)OC(F)(F)C(F)(F)OC(F)(F)F [Perfluoro-3,6,9-trioxadecanoic acid] | 100 | 0 | 16.7 | – | –
22 | O=C(Cl)C(F)(F)C(F)(F)C(F)(F)C(F)(F)C(F)(F)C(F)(F)C(F)(F)F [Pentadecafluorooctanoyl chloride] | 16.7 | 0 | 0 | – | –
23 | NC(=O)C(F)(F)C(F)(F)C(F)(F)F [Heptafluorobutyramide] | 25 | 0 | 16.7 | – | –
24 | FC(F)(F)COC(OCC(F)(F)F)OCC(F)(F)F [tris(Trifluoroethoxy)methane] | 0 | 0 | 0 | – | –
25 | O=C(O)C(F)(F)OC(F)(F)C(F)(F)OC(F)(F)C(=O)O [Perfluoro-3,6-dioxaoctane-1,8-dioic acid] | 0 | 0 | 0 | – | –
26 | O=C(O)C(F)(F)C(F)(F)C(F)(F)C(F)(F)F [Perfluoropentanoic acid] | 25 | 0 | 0 | – | –
27 | O=P(O)(O)OCCC(F)(F)C(F)(F)C(F)(F)C(F)(F)C(F)(F)C(F)(F)F [6:2 Fluorotelomer phosphate monoester] | 0 | 0 | 0 | – | –
28 | OCCCC(F)(F)C(F)(F)C(F)(F)C(F)(F)C(F)(F)C(F)(F)C(F)(F)C(F)(F)F [3-(Perfluorooctyl)propanol] | 0 | 0 | 0 | – | –
29 | NC(=O)C(F)(F)C(F)(F)C(F)(F)C(F)(F)C(N)=O [Octafluoroadipamide] | 0 | 0 | 0 | – | –
30 | C=C(C)C(=O)OCC(F)(F)C(F)(F)C(F)(F)C(F)F [1H,1H,5H-Perfluoropentyl methacrylate] | 66.7 | 0 | 66.7 | 27.9 | –
31 | O=S(=O)(O)CCC(F)(F)C(F)(F)C(F)(F)C(F)(F)C(F)(F)C(F)(F)C(F)(F)C(F)(F)F [8:2 Fluorotelomer sulfonic acid] | 0 | 0 | 0 | – | –
32 | O=C(O)C=C(C(F)(F)F)C(F)(F)F [3,3-Bis(trifluoromethyl)-2-propenoic acid] | 2.08 | 0 | 0 | – | –
33 | O=C(O)C=CC(F)(C(F)(F)F)C(F)(F)F [3-(Perfluoroisopropyl)-2-propenoic acid] | 16.7 | 0 | 0 | – | –
